Read-outs that look alike come from different tables or passages of the source.
Experiments:
Assay type in all cases: cell-based
[1] = system: SARS-CoV-2 PsV D614G; settings: read-out: IC50, inhibition of PsV entry
[2] = system: SARS-CoV-2 PsV B.1.1.529 (Omicron); assay: microbe, parasite or virus in culture; settings: Omicron variant, Vero-TMPRSS2 cells
[3] = system: SARS-CoV-2 PsV D614G; settings: read-out: IC50, inhibition of PsV entry; remark: listed apart in the source

## CN(C)C(=O)COC(=O)Cc1ccc(OC(=O)c2ccc(NC(=N)N)cc2)cc1 [Camostat]
[1]
  IC50: 199 nM
[2]
  inhibition of PsV entry (in words): unable to inhibit
[3]
  IC50: > 300000 nM

Reference: article PMC9295568, “Dual Inhibition of Vacuolar-ATPase and TMPRSS2 Is Required for Complete Blockade of SARS-CoV-2 Entry into Cells” (Antimicrobial Agents and Chemotherapy, 2022)
